From patent publication US20200078468A1, “NEUROTENSIN RECEPTOR BINDING CONJUGATES AND FORMULATIONS THEREOF” (priority 2016, published 2020)
Where two headings read alike, the source gives them in different places.

Assays:
human NTSR1 = target: T1, human NTSR1 (Homo sapiens, UniProt P30989); assay: radioligand-receptor binding assay, [125I] labeled neurotensin (Eurofins Panlabs); conditions: [125I] neurotensin 0.02 nM, membranes from NTSR1 expressing HEK-293 cells, 45 minute incubation, Cheng and Prusoff; read-out: NTSR1 binding Ki
T1 construct: host or cells: HEK-293 cells (membrane preparations)
Procedure: Conjugates were assessed in an in vitro assay evaluating binding to NTSR1. A radioligand-receptor binding assay was conducted at Eurofins Panlabs (Taiwan) to determine the affinity of conjugates described herein to NTSR1. The assay measures binding of radiolabeled ligand, [^125I] labeled neurotensin, to human NTSR1 using membrane preparations from NTSR1 expressing HEK-293 cells (Human embryonic kidney cells 293). Membranes were incubated with radiolabeled neurotensin (0.02 nM) in the presence of conjugate/compound starting at a dose of either 100 nM, or 10 nM, using 3× serial dilutions to obtain a 6-pt curve. After a 45 minute incubation, membranes were filtered and washed 3× and counted to determine the remaining [^125I] neurotensin bound to the receptor. IC50 values were determined by a non-linear, least squares regression analysis using MathIQ™ (ID Business Solutions Ltd., UK). The Ki values were calculated using the equation of Cheng and Prusoff (Cheng and Prusoff, Biochem. Pharmacol. 22:3099-3108, 1973) using the observed IC50 of the tested conjugate/compound, the concentration of radioligand employed in the assay, and the historical values for the Kd of the ligand obtained at Eurofins.

[1] = tested on: SW48 (human colon cancer cells); assay: inhibition of SW48 cell proliferation (CellTiter Glo); type: cell-based; conditions: 72 hrs, read-out: SW-48 proliferation IC50
Procedure: Conjugates were assessed in an in vitro assay evaluating inhibition of cell proliferation. SW48 (human colon cancer cells, ATCC®), cells were plated in 96 well, flat-bottomed plates (Costar) at a concentration of 5,000 cells/well. Cells were then incubated at 37° C. with 5% CO2 for 24 hrs. After 24 hrs, cells were treated with 0.01% DMSO or compound. Compounds were added at a starting dose of 10 μM and three fold serial dilutions were done for a total often points. Following compound addition, cells were incubated at 37° C. with 5% CO2 for 72 hrs. Proliferation was measured by CellTiter Glo reagent using the standard protocol (Promega) and a Glomax multi+detection system (Promega). Percent proliferation inhibition was calculated using the following formula: % inhibition=(control−treatment)/control*100. Control is defined as vehicle alone. IC50 curves were generated using the nonlinear regression analysis (four parameter) with GraphPad Prism 6.
Conjugates are assessed for receptor-dependent cytotoxicity by the difference between an NTSR1-targeting conjugate, and the corresponding conjugate with the same linker moiety and active agent where the NTSR1-targeting domain has been scrambled.

T1 sequence (P30989 whole entry): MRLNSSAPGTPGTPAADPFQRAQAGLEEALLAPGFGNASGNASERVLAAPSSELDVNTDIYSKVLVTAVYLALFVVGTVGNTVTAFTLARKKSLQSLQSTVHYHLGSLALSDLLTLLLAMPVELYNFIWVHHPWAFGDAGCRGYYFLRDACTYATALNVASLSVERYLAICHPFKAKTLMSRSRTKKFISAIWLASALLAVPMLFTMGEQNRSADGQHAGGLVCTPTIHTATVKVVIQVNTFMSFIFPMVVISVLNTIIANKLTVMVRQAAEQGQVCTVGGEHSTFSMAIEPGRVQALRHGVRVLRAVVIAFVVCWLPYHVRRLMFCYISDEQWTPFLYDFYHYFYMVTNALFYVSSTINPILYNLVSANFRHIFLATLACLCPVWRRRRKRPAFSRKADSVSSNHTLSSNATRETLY

Row | SMILES | Ki (human NTSR1) [nM] | other results
1 | CC[C@H](C)[C@H](NC(=O)[C@H](Cc1ccc(Cl)c(Cl)c1)NC(=O)[C@@H]1CCCN1C(=O)[C@H](CCCNC(=N)N)NC(=O)[C@@H](CCCNC(=N)N)NC(=O)[C@@H]1CCCN1C(=O)[C@H](CCCCNC(=O)CCSC1CC(=O)N(CCCCCC(=O)NCC(=O)N[C@@H](Cc2ccccc2)C(=O)N[C@@H](CC(C)C)C(=O)NCC(=O)NCCCN2C(=O)CC(SCCC(=O)N(C)[C@@H](C)C(=O)O[C@H]3CC(=O)N(C)c4cc(cc(OC)c4Cl)C/C(C)=C/C=C/[C@@H](OC)[C@@]4(O)C[C@H](OC(=O)N4)[C@@H](C)[C@@H]4O[C@@]34C)C2=O)C1=O)NC(C)=O)C(=O)N[C@@H](C[Si](C)(C)C)C(=O)O (some centres unmarked) [Compound 47] | > 10 | 
2 | COc1cc2cc(c1Cl)N(C)C(=O)C[C@H](OC(=O)[C@H](C)N(C)C(=O)CCSC1CC(=O)N(CCCNC(=O)CNC(=O)[C@H](CC(C)C)NC(=O)[C@H](Cc3ccccc3)NC(=O)CNC(=O)CCCCCN3C(=O)CC(SCCC(=O)NCCCC[C@H](NC(C)=O)C(=O)N4CCC[C@H]4C(=O)N[C@@H](CCCCN)C(=O)N[C@@H](CCCCN)C(=O)N4CCC[C@H]4C(=O)N[C@@H](Cc4ccc(O)cc4)C(=O)N[C@@H](C[Si](C)(C)C)C(=O)N[C@@H](C[Si](C)(C)C)C(=O)O)C3=O)C1=O)[C@]1(C)O[C@H]1[C@H](C)[C@@H]1C[C@@](O)(NC(=O)O1)[C@H](OC)/C=C/C=C(\C)C2 (some centres unmarked) [Compound 48] | > 10 | 
3 | CO[C@H]1C(=O)[C@]2(C)[C@@H](OC)C[C@H]3OC[C@@]3(OC(C)=O)[C@H]2[C@H](OC(=O)c2ccccc2)[C@]2(O)C[C@H](OC(=O)[C@H](OC(=O)OCCSSC(C)(C)[C@H](NC(C)=O)C(=O)N3CCC[C@H]3C(=O)N[C@@H](CCCNC(=N)N)C(=O)N[C@@H](CCCNC(=N)N)C(=O)N3CCC[C@H]3C(=O)N[C@@H](Cc3ccc(O)cc3)C(=O)N[C@H](C(=O)N[C@@H](CC(C)C)C(=O)O)C(C)(C)C)[C@@H](NC(=O)OC(C)(C)C)c3ccccc3)C(C)=C1C2(C)C [Compound 2] | 3.97 | 
4 | COc1cc2cc(c1Cl)N(C)C(=O)C[C@H](OC(=O)[C@H](C)N(C)C(=O)CCSC1CC(=O)N(CCCNC(=O)CNC(=O)[C@H](CC(C)C)NC(=O)[C@H](Cc3ccccc3)NC(=O)CNC(=O)CCCCCN3C(=O)CC(SCCC(=O)NCCCC[C@H](NC(C)=O)C(=O)N4CCC[C@H]4C(=O)N[C@H](CCCNC(=N)N)C(=O)N[C@@H](CCCNC(=N)N)C(=O)N4CCC[C@H]4C(=O)N[C@@H](Cc4ccc(O)cc4)C(=O)N[C@H](C(=O)N[C@@H](C[Si](C)(C)C)C(=O)O)[C@@H](C)OC)C3=O)C1=O)[C@]1(C)O[C@H]1[C@H](C)[C@@H]1C[C@@](O)(NC(=O)O1)[C@H](OC)/C=C/C=C(\C)C2 (some centres unmarked) [Compound 39] | 0.8 | 
5 | COc1cc2cc(c1Cl)N(C)C(=O)C[C@H](OC(=O)[C@H](C)N(C)C(=O)CCSC1CC(=O)N(CCCNC(=O)CNC(=O)[C@H](CC(C)C)NC(=O)[C@H](Cc3ccccc3)NC(=O)CNC(=O)CCCCCN3C(=O)CC(SCCC(=O)NCCCC[C@H](NC(C)=O)C(=O)N4CCC[C@H]4C(=O)N[C@H](CCCNC(=N)N)C(=O)N[C@@H](CCCNC(=N)N)C(=O)N4CCC[C@H]4C(=O)N[C@@H](Cc4ccc(O)cc4)C(=O)N[C@H](C(=O)N[C@@H](C[Si](C)(C)C)C(=O)O)C4CCCC4)C3=O)C1=O)[C@]1(C)O[C@H]1[C@H](C)[C@@H]1C[C@@](O)(NC(=O)O1)[C@H](OC)/C=C/C=C(\C)C2 (some centres unmarked) [Compound 42] | 0.64 | 
6 | COc1cc2cc(c1Cl)N(C)C(=O)C[C@H](OC(=O)[C@H](C)N(C)C(=O)CCSC1CC(=O)N(CCCNC(=O)CNC(=O)[C@H](CC(C)C)NC(=O)[C@H](Cc3ccccc3)NC(=O)CNC(=O)CCCCCN3C(=O)CC(SCCC(=O)NCCCC[C@H](NC(=O)c4ccc(N=[N+]=[N-])cc4)C(=O)N4CCC[C@H]4C(=O)N(C)[C@@H](CCCNC(=N)N)C(=O)N[C@@H](CCCNC(=N)N)C(=O)N4CCC[C@H]4C(=O)N[C@@H](Cc4ccc(O)cc4)C(=O)N[C@H](C(=O)N[C@@H](CC(C)C)C(=O)O)C(C)(C)C)C3=O)C1=O)[C@]1(C)O[C@H]1[C@H](C)[C@@H]1C[C@@](O)(NC(=O)O1)[C@H](OC)/C=C/C=C(\C)C2 (some centres unmarked) [Compound 49] | 0.18 | 
7 | CC[C@H](C)[C@H](NC(=O)[C@H](Cc1ccc(O)cc1)NC(=O)[C@@H]1CCCN1C(=O)[C@H](CCCNC(=N)N)NC(=O)[C@@H](CCCNC(=N)N)NC(=O)[C@@H]1CCCN1C(=O)[C@H](CCCCNC(=O)CCSC1CC(=O)N(CCCCCC(=O)NCC(=O)N[C@@H](Cc2ccccc2)C(=O)N[C@@H](CC(C)C)C(=O)NCC(=O)NCCCN2C(=O)CC(SCCC(=O)N(C)[C@@H](C)C(=O)O[C@H]3CC(=O)N(C)c4cc(cc(OC)c4Cl)C/C(C)=C/C=C/[C@@H](OC)[C@@]4(O)C[C@H](OC(=O)N4)[C@@H](C)[C@@H]4O[C@@]34C)C2=O)C1=O)NC(C)=O)C(=O)N[C@@H](C[Si](C)(C)C)C(=O)O (some centres unmarked) [Compound 38] | 0.087 | 
8 | COc1cccc2c1C(=O)c1c(O)c3c(c(O)c1C2=O)C[C@@](O)(C(=O)CO)C[C@@H]3O[C@H]1C[C@H](NC(=O)OCc2ccc(NC(=O)[C@H](CCCNC(N)=O)NC(=O)[C@@H](NC(=O)CCCCCN3C(=O)CC(SC(C)(C)[C@H](NC(C)=O)C(=O)N4CCC[C@H]4C(=O)N[C@@H](CC(C)C)C(=O)N4CCC[C@H]4C(=O)N[C@@H](CCCNC(=N)N)C(=O)N[C@H](C(=O)N[C@@H](CCCNC(=N)N)C(=O)N[C@@H](Cc4ccc(O)cc4)C(=O)O)C(C)(C)C)C3=O)C(C)C)cc2)[C@H](O)[C@H](C)O1 (some centres unmarked) [Compound 89] |  | IC50 ([1]; NTSR1 scrambled compound): 2580 nM
9 | CO[C@H]1C(=O)[C@]2(C)[C@@H](OC)C[C@H]3OC[C@@]3(OC(C)=O)[C@H]2[C@H](OC(=O)c2ccccc2)[C@]2(O)C[C@H](OC(=O)[C@H](OC(=O)N(C)CCN(C)C(=O)OCc3ccc(NC(=O)[C@H](CCCNC(N)=O)NC(=O)[C@@H](NC(=O)CCCCCN4C(=O)CC(SC(C)(C)[C@H](NC(C)=O)C(=O)N5CCC[C@H]5C(=O)N[C@@H](CCCNC(=N)N)C(=O)N(C)[C@@H](CCCNC(=N)N)C(=O)N5CCC[C@H]5C(=O)N[C@@H](Cc5ccc(O)cc5)C(=O)N[C@H](C(=O)N[C@@H](CC(C)C)C(=O)O)C(C)(C)C)C4=O)C(C)C)cc3)[C@@H](NC(=O)OC(C)(C)C)c3ccccc3)C(C)=C1C2(C)C (some centres unmarked) [Compound 6] |  | IC50 ([1]; NTSR1 targeted compound): 2240 nM
10 | CO[C@H]1C(=O)[C@]2(C)[C@@H](OC)C[C@H]3OC[C@@]3(OC(C)=O)[C@H]2[C@H](OC(=O)c2ccccc2)[C@]2(O)C[C@H](OC(=O)[C@H](OC(=O)N(C)CCN(C)C(=O)OCc3ccc(NC(=O)[C@H](CCCNC(N)=O)NC(=O)[C@@H](NC(=O)CCCCCN4C(=O)CC(SC(C)(C)[C@H](NC(C)=O)C(=O)N5CCC[C@H]5C(=O)N[C@@H](CCCNC(=N)N)C(=O)N[C@@H](CCCNC(=N)N)C(=O)N5CCC[C@H]5C(=O)N[C@@H](Cc5ccc(O)cc5)C(=O)N[C@H](C(=O)N[C@@H](CC(C)C)C(=O)O)C(C)(C)C)C4=O)C(C)C)cc3)[C@@H](NC(=O)OC(C)(C)C)c3ccccc3)C(C)=C1C2(C)C (some centres unmarked) [Compound 5] |  | IC50 ([1]; NTSR1 targeted compound): 1700 nM
11 | COc1cc2cc(c1Cl)N(C)C(=O)C[C@H](OC(=O)[C@H](C)N(C)C(=O)CCSC1CC(=O)N(CCCNC(=O)CNC(=O)[C@H](CC(C)C)NC(=O)[C@H](Cc3ccccc3)NC(=O)CNC(=O)CCCCCN3C(=O)CC(SCCC(=O)NCCCC[C@H](NC(C)=O)C(=O)N4CCC[C@H]4C(=O)N(C)[C@@H](CCCNC(=N)N)C(=O)N[C@@H](CCCNC(=N)N)C(=O)N4CCC[C@H]4C(=O)N[C@@H](Cc4ccc(O)cc4)C(=O)N[C@H](C(=O)N[C@@H](CC(C)C)C(=O)O)C(C)(C)C)C3=O)C1=O)[C@]1(C)O[C@H]1[C@H](C)[C@@H]1C[C@@](O)(NC(=O)O1)[C@H](OC)/C=C/C=C(\C)C2 (some centres unmarked) [Compound 23] |  | IC50 ([1]; NTSR1 targeted compound): 38.6 nM
